Data reported in ChEMBL document CHEMBL3862033 (J Med Chem, 2016).

The molecules below were run against 5-hydroxytryptamine receptor 7 (Homo sapiens) (UniProt P34969) (assay: Displacement of [3H]LSD from human 5-HT7A receptor expressed in HEK cell membranes at 10 uM incubated for 90 mins under dark condition by microbeta scintillation counting method relative to control). Details: HEK293.
Sequence of 5-hydroxytryptamine receptor 7 (Homo sapiens) (P34969 whole entry): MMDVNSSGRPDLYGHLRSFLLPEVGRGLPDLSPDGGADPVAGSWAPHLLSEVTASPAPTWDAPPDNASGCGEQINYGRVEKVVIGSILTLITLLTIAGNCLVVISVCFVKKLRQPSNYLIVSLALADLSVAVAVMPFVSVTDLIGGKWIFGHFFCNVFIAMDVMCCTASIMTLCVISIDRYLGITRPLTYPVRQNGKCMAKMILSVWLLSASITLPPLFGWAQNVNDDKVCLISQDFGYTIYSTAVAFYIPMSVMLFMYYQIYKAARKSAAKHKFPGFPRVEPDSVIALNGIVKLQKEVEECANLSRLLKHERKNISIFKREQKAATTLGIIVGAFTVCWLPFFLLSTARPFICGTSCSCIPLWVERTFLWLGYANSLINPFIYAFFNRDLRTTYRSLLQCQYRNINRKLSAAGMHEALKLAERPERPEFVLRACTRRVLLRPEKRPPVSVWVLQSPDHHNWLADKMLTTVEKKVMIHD

Row | inhibition [%] | Structure (SMILES)
1 | < 50 | CCOC(=O)[C@@]12C[C@@H]1[C@@H](n1cnc3c(N(C)C)nc(Cl)nc31)[C@H](O)[C@@H]2O

The molecules below were run against T1, 5-hydroxytryptamine receptor 2A (Homo sapiens, UniProt P28223) (assay: Displacement of [3H]ketanserin from human 5-HT2A receptor expressed in HEK-T cell membranes incubated for 90 mins under dark condition by microbeta scintillation counting method). Details: not given.
T1 sequence (P28223 whole entry): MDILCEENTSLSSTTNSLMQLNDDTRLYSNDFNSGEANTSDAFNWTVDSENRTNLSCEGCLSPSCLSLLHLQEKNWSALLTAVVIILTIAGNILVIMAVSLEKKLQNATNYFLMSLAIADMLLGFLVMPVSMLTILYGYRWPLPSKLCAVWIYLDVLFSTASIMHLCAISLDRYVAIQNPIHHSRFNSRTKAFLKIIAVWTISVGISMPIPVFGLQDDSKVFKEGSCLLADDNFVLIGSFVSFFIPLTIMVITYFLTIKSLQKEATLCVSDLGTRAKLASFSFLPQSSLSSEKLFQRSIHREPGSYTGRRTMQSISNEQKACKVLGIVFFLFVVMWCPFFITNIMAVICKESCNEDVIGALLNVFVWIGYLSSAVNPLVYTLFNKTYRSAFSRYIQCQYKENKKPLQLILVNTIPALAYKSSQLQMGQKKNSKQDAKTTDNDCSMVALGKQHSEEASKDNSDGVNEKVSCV

Row | Ki [nM] | Structure (SMILES)
2 | > 10000 | CCOC(=O)[C@@]12C[C@@H]1[C@@H](n1cnc3c(N(C)C)nc(Cl)nc31)[C@H](O)[C@@H]2O

What follows are molecules tested against Adenosine receptor A2a (Homo sapiens, UniProt P29274) (assay: Displacement of [3 H]2-[p-(2-carboxyethyl)phenyl-ethylamino]-5'-N-ethylcarboxamidoadenosine from recombinant human adenosine receptor A2A expressed in HEK293 cell membranes at 10 uM after 60 mins by liquid scintillation counting method relative to control). Details: not given.
Sequence of Adenosine receptor A2a (P29274 whole entry): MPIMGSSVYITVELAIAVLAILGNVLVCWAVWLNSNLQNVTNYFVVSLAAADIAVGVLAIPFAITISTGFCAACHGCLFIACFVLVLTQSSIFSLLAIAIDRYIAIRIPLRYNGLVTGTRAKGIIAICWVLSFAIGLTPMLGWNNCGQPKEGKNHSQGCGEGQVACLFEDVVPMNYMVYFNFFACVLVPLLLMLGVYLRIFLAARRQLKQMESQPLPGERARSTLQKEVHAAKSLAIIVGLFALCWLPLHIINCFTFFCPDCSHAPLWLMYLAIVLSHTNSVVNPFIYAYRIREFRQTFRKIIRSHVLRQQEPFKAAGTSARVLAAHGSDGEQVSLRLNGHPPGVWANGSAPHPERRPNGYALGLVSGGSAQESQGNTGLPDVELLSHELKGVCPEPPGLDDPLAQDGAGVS

Row | inhibition [%] | Structure (SMILES)
3 | 13 | CCOC(=O)[C@@]12C[C@@H]1[C@@H](n1cnc3c(N(C)C)nc(Cl)nc31)[C@H](O)[C@@H]2O

These molecules were tested against 5-hydroxytryptamine receptor 1B (Homo sapiens) (UniProt P28222) (assay: Displacement of [3H]5-CT from human 5-HT1BR expressed in HEK cell membranes at 10 uM incubated for 90 mins under dark condition by microbeta scintillation counting method relative to control). Details: HEK293.
Sequence of 5-hydroxytryptamine receptor 1B (Homo sapiens) (P28222 whole entry): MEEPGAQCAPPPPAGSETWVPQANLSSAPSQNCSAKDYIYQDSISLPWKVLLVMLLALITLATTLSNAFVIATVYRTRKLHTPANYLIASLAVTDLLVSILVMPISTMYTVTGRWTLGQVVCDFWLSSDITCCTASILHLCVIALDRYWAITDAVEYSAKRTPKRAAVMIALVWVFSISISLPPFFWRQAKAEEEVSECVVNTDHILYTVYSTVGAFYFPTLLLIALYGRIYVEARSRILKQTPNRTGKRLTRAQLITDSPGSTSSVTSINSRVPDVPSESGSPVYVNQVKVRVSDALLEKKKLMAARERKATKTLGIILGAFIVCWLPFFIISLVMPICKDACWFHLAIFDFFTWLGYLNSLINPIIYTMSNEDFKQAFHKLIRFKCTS

Row | inhibition [%] | Structure (SMILES)
4 | < 50 | CCOC(=O)[C@@]12C[C@@H]1[C@@H](n1cnc3c(N(C)C)nc(Cl)nc31)[C@H](O)[C@@H]2O

What follows are molecules tested against 5-hydroxytryptamine receptor 6 (Homo sapiens) (UniProt P50406) (assay: Displacement of [3H]LSD from human 5-HT6 receptor expressed in HEK cell membranes at 10 uM incubated for 90 mins under dark condition by microbeta scintillation counting method relative to control). Details: HEK293.
Sequence of 5-hydroxytryptamine receptor 6 (Homo sapiens) (P50406 whole entry): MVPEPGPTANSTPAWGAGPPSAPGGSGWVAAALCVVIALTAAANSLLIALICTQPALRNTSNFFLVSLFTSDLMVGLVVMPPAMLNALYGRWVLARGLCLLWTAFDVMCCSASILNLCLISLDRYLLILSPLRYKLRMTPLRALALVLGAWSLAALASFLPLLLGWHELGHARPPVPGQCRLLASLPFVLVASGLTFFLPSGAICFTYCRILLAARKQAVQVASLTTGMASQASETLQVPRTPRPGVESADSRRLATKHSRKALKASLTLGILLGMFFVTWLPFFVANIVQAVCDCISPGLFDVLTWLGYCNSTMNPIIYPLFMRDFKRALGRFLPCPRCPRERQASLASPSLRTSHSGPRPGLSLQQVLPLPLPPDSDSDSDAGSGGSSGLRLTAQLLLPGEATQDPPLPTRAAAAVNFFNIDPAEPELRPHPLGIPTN

Row | inhibition [%] | Structure (SMILES)
5 | < 50 | CCOC(=O)[C@@]12C[C@@H]1[C@@H](n1cnc3c(N(C)C)nc(Cl)nc31)[C@H](O)[C@@H]2O

The molecules below were run against T2, 5-hydroxytryptamine receptor 2B (Homo sapiens, UniProt P41595) (assay: biochemical). Details: not given.
Assay type: cell-based, HEK293

T2 sequence (P41595 whole entry): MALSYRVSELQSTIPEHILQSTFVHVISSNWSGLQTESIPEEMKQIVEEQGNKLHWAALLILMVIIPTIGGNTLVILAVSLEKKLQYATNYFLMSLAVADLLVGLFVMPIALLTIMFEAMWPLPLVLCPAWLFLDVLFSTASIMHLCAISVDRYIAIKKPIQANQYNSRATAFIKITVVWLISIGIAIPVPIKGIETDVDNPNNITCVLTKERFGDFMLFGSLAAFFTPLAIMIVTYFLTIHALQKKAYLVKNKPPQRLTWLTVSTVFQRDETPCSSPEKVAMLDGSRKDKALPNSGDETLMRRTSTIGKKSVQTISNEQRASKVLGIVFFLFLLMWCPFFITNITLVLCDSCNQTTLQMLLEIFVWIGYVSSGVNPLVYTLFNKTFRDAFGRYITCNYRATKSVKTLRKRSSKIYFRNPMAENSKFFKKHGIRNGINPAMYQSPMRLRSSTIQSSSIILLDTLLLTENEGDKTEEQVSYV

Row | Ki [nM] | Structure (SMILES)
6 | 671 | CCOC(=O)[C@@]12C[C@@H]1[C@@H](n1cnc3c(N(C)C)nc(Cl)nc31)[C@H](O)[C@@H]2O

The molecules below were run against 5-hydroxytryptamine receptor 1D (Homo sapiens) (UniProt P28221) (assay: Displacement of [3H]5-CT from human 5-HT1D receptor expressed in HEK-T cell membranes at 10 uM incubated for 90 mins under dark condition by microbeta scintillation counting method relative to control). Details: not given.
Sequence of 5-hydroxytryptamine receptor 1D (Homo sapiens) (P28221 whole entry): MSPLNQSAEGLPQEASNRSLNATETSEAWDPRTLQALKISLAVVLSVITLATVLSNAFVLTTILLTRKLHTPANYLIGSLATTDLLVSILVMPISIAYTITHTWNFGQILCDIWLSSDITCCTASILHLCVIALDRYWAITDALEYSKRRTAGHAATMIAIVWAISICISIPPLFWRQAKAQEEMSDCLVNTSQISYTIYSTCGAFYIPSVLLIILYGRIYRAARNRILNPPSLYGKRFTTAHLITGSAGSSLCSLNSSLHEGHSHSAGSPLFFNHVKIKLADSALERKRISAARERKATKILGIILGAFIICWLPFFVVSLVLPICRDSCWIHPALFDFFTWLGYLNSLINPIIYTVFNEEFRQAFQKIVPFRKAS

Row | inhibition [%] | Structure (SMILES)
7 | < 50 | CCOC(=O)[C@@]12C[C@@H]1[C@@H](n1cnc3c(N(C)C)nc(Cl)nc31)[C@H](O)[C@@H]2O

These molecules were tested against 5-hydroxytryptamine receptor 4 (Homo sapiens) (UniProt Q13639) (assay: Displacement of [3H]GR113808 from human 5-HT4 receptor at 10 uM incubated for 90 mins under dark condition by microbeta scintillation counting method relative to control). Details: not given.
Sequence of 5-hydroxytryptamine receptor 4 (Homo sapiens) (Q13639 whole entry): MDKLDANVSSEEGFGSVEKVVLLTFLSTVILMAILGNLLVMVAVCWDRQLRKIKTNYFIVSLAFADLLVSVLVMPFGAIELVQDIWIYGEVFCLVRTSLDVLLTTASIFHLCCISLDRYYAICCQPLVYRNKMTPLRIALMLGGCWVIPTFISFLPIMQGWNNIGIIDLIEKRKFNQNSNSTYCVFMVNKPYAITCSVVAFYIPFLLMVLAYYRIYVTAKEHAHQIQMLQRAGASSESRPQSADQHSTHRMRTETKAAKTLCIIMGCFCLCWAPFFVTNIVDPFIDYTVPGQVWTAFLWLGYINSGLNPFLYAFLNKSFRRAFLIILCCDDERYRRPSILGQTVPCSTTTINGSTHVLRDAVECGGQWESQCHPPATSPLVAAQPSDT

Row | inhibition [%] | Structure (SMILES)
8 | < 50 | CCOC(=O)[C@@]12C[C@@H]1[C@@H](n1cnc3c(N(C)C)nc(Cl)nc31)[C@H](O)[C@@H]2O

Each molecule was assayed against T1, 5-hydroxytryptamine receptor 2A (assay: Displacement of [3H]ketanserin from human 5-HT2A receptor expressed in HEK-T cell membranes at 10 uM incubated for 90 mins under dark condition by microbeta scintillation counting method relative to control). Details: not given.

Row | inhibition [%] | Structure (SMILES)
9 | < 10 | CCOC(=O)[C@@]12C[C@@H]1[C@@H](n1cnc3c(N(C)C)nc(Cl)nc31)[C@H](O)[C@@H]2O

What follows are molecules tested against T3, 5-hydroxytryptamine receptor 1A (Homo sapiens) (UniProt P08908) (assay: Displacement of [3H]WAY100635 from human 5-HT1AR expressed in CHO cell membranes at 10 uM incubated for 90 mins under dark condition by microbeta scintillation counting method relative to control). Details: not given.
T3 sequence (whole entry): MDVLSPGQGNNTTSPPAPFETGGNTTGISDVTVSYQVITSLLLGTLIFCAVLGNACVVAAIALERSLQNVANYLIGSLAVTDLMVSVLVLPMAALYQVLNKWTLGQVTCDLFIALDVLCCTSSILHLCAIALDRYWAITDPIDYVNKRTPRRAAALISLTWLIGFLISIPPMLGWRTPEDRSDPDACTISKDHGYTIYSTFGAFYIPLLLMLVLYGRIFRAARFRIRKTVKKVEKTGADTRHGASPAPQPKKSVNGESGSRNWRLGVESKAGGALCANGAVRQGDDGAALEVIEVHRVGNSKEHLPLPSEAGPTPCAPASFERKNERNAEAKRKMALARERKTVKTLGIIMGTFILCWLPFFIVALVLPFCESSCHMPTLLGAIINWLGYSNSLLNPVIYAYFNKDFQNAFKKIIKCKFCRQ

Row | inhibition [%] | Structure (SMILES)
10 | < 50 | CCOC(=O)[C@@]12C[C@@H]1[C@@H](n1cnc3c(N(C)C)nc(Cl)nc31)[C@H](O)[C@@H]2O

These molecules were tested against T4, 5-hydroxytryptamine receptor 3A (Homo sapiens) (UniProt P46098) (assay: Displacement of [3H]GR65630 from human 5-HT3 receptor expressed in HEK-T cell membranes at 10 uM incubated for 90 mins under dark condition by microbeta scintillation counting method relative to control). Details: not given.
T4 sequence (whole entry): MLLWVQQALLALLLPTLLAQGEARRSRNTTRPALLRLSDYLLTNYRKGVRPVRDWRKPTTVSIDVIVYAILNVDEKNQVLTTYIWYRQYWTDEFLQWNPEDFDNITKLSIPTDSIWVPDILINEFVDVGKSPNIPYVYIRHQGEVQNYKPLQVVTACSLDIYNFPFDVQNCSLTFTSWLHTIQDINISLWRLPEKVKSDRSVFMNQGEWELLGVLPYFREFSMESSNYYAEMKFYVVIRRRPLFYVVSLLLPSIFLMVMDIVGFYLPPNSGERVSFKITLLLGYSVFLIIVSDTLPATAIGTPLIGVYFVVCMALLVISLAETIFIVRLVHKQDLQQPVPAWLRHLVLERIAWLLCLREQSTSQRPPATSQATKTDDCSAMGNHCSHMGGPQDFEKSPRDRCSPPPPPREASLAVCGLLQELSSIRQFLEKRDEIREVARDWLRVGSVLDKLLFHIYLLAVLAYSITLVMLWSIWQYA

Row | inhibition [%] | Structure (SMILES)
11 | < 50 | CCOC(=O)[C@@]12C[C@@H]1[C@@H](n1cnc3c(N(C)C)nc(Cl)nc31)[C@H](O)[C@@H]2O

These molecules were tested against Adenosine receptor A3 (Homo sapiens) (UniProt P0DMS8) (assay: Displacement of [125l]N 6-(4-amino-3-iodobenzyl)adenosine-5'-N-methyluronamide from recombinant human A3AR expressed in CHO cell membranes at 10 uM after 60 mins by gamma counting method relative to control). Details: not given.
Sequence of Adenosine receptor A3 (Homo sapiens) (P0DMS8 whole entry, looked up): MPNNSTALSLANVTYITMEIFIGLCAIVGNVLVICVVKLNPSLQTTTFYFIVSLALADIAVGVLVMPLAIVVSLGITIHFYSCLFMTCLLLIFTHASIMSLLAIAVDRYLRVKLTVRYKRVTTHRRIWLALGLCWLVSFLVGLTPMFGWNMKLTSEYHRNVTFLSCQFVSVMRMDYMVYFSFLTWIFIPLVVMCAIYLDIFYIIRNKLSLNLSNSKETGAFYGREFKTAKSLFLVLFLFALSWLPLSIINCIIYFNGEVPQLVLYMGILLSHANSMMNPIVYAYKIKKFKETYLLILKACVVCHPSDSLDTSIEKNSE

Row | inhibition [%] | Structure (SMILES)
12 | 30 | CCOC(=O)[C@@]12C[C@@H]1[C@@H](n1cnc3c(N(C)C)nc(Cl)nc31)[C@H](O)[C@@H]2O

The molecules below were run against T5, 5-hydroxytryptamine receptor 2C (Homo sapiens, UniProt P28335) (assay: Displacement of [3H]mesulergine from human 5-HT2CR expressed in Flp-In HEK cell membranes incubated for 90 mins under dark condition by microbeta scintillation counting method). Details: not given.
T5 sequence (P28335 whole entry): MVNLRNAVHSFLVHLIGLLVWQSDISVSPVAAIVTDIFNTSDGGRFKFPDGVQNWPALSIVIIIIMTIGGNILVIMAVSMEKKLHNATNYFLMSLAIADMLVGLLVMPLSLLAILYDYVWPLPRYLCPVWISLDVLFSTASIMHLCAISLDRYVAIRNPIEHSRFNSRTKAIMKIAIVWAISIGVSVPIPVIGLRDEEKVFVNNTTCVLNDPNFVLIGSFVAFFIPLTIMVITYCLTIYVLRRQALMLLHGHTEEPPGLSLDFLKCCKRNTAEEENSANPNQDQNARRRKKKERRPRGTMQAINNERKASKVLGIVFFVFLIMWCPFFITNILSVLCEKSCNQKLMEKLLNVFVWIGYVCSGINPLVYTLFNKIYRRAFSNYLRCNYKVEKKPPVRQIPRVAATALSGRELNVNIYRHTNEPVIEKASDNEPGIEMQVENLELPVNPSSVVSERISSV
Parameters: species or system HEK293

Row | Ki [nM] | Structure (SMILES)
13 | 1350 | CCOC(=O)[C@@]12C[C@@H]1[C@@H](n1cnc3c(N(C)C)nc(Cl)nc31)[C@H](O)[C@@H]2O

What follows are molecules tested against 5-hydroxytryptamine receptor 5A (Homo sapiens) (UniProt P47898) (assay: Displacement of [3H]LSD from human 5-HT5A receptor expressed in Flp-In-CHO cell membranes incubated for 90 mins under dark condition by microbeta scintillation counting method relative to control). Details: not given.
Parameters: concentration or dose not given beside the values

Sequence of 5-hydroxytryptamine receptor 5A (Homo sapiens) (P47898 whole entry): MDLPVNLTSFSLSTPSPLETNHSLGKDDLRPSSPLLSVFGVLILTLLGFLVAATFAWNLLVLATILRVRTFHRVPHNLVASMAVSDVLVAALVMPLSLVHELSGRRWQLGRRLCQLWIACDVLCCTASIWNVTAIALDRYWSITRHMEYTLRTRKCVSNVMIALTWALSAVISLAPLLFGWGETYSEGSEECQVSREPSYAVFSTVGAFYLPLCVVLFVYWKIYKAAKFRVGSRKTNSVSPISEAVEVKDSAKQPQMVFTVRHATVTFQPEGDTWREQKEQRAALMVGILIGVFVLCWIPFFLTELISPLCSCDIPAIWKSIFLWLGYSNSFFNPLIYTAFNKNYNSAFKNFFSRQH

Row | inhibition [%] | Structure (SMILES)
14 | < 50 | CCOC(=O)[C@@]12C[C@@H]1[C@@H](n1cnc3c(N(C)C)nc(Cl)nc31)[C@H](O)[C@@H]2O

Each molecule was assayed against T2, 5-hydroxytryptamine receptor 2B (assay: not given). Details: HEK293, at 10 µM.

Row | inhibition [%] | Structure (SMILES)
15 | > 50 | CCOC(=O)[C@@]12C[C@@H]1[C@@H](n1cnc3c(N(C)C)nc(Cl)nc31)[C@H](O)[C@@H]2O

The molecules below were run against T6, Adenosine receptor A1 (Homo sapiens) (UniProt P30542) (assay: Displacement of [3H]N6-phenylisopropyladenosine from recombinant human A1AR expressed in CHO cell membranes at 10 uM after 60 mins by liquid scintillation counting method relative to control). Details: not given.
T6 sequence (whole entry): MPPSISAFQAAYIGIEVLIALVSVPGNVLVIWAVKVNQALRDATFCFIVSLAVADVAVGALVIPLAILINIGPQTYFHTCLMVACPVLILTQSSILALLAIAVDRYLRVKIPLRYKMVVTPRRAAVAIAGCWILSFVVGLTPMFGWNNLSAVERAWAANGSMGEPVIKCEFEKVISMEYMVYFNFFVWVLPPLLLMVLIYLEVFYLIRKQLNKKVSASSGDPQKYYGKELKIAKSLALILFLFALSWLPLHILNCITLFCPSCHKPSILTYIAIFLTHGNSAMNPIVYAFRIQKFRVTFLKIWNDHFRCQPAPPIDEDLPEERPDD

Row | inhibition [%] | Structure (SMILES)
16 | < 10 | CCOC(=O)[C@@]12C[C@@H]1[C@@H](n1cnc3c(N(C)C)nc(Cl)nc31)[C@H](O)[C@@H]2O

What follows are molecules tested against 5-hydroxytryptamine receptor 1E (Homo sapiens) (UniProt P28566) (assay: Displacement of [3H]5-HT from human 5-HT1E receptor expressed in HEK cell membranes at 10 uM incubated for 90 mins under dark condition by microbeta scintillation counting method relative to control). Details: HEK293.
Sequence of 5-hydroxytryptamine receptor 1E (Homo sapiens) (P28566 whole entry): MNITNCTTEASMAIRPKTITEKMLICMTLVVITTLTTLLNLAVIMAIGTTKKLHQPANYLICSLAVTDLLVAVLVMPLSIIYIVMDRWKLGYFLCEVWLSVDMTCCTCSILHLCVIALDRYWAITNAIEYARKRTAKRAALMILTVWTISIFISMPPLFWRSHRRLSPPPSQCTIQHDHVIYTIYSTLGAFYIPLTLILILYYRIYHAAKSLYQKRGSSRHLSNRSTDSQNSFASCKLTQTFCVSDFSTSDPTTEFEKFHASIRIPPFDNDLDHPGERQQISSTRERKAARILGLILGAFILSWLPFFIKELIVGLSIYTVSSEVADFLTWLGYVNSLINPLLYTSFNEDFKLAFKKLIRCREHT

Row | inhibition [%] | Structure (SMILES)
17 | < 50 | CCOC(=O)[C@@]12C[C@@H]1[C@@H](n1cnc3c(N(C)C)nc(Cl)nc31)[C@H](O)[C@@H]2O

The molecules below were run against T7, 5-hydroxytryptamine receptor 2C (Homo sapiens) (UniProt P28335) (assay: Displacement of [3H]mesulergine from human 5-HT2CR expressed in Flp-In HEK cell membranes at 10 uM incubated for 90 mins under dark condition by microbeta scintillation counting method relative to control). Details: HEK293.
T7 sequence (whole entry): T5 sequence (P28335 whole entry)

Row | inhibition [%] | Structure (SMILES)
18 | > 50 | CCOC(=O)[C@@]12C[C@@H]1[C@@H](n1cnc3c(N(C)C)nc(Cl)nc31)[C@H](O)[C@@H]2O
